Results: US7501281B2, “Compositions, methods and kits related to thrombin, Notch signaling and stamatogenesis and growth of stem cells” (Maine Medical Center Research Institute, priority 2003, dated 2009)

What was measured:
[1] = test system: Swiss 3T3 cells expressing a dominant-negative FGFR1 mutant; assay: DNA synthesis assay, (3H)-thymidine autoradiography; assay type: cell-based, murine; conditions: 10 μg/ml α-thrombin
Method: A combination of (^3H)-thymidine autoradiography and immunohistochemistry was used to evaluate the levels of DNA synthesis in Swiss 3T3 cells expressing a dominant-negative FGFR1 mutant. Swiss 3T3 cells were plated at 50% confluency on glass coverslips precoated with fibronectin (10 μg/cm^2) for 24 hours. The cells were transfected with the pCS2 vector expressing a dominant-negative X. laevis FGFR1 deletion mutant lacking the FGFR1 intracellular domain (a gift from Dr. R. Friesel) using the Fugene 6 reagent (Roche). After 24 hours, the medium was changed to DMEM containing 0.25% BCS and following a 48 hour incubation in low BCS, the cells were stimulated with either 10 μg/ml of α-thrombin, 10% BCS or 10 ng/ml of recombinant FGF1 plus 10 units/ml of heparin. After stimulation for 24 hours, (^3H)-thymidine (NEN; 1 μCi/ml) was added to the medium and cells were incubated for 12 hours and fixed with 4% neutral formaldehyde. […] The percentage of (^3H)-labeled nuclei among the dnFGFR1-positive and dnFGFR1-negative cells was quantitated using an inverted Olympus microscope.
Thus, a dominant-negative (dn) FGFR1 construct was expressed in Swiss 3T3 cells and their proliferative index measured in the presence and absence of exogenous thrombin.

[2] = test system: FGF1R136K NIH 3T3 cell transfectants; assay: Thrombin stimulation and immunoblot analysis of FGF1 release; assay type: cell-based, murine
Method: FGF1R136K NIH 3T3 cell transfectants or adenovirally-transduced NIH 3T3 cells were washed with DMEM containing 5 units/ml of heparin (Sigma) and stimulated with either 10 μg/ml α-thrombin (a gift from Dr. J. Fenton) or 5 μM TRAP (Sigma) at 37° C. for different periods of time. Control cells were incubated in the absence of thrombin for the same time period. Conditioned media were collected at each time period, filtered, and concentrated as previously described (Jackson et al., 1992, Proc. Natl. Acad. Sci. U.S.A. 89:10691-10695). The concentrates were resolved by SDS-PAGE and subjected to immunoblot analysis using a rabbit antibody against either FGF1 (Jackson et al., 1992), Syt1 (LaVallee et al.,1998, J. Biol. Chem. 273:22217-22223) or Myc (Oncogene). The heat shock-induced release of FGF1 was performed at 42° C. for 110 minutes as previously described (Jackson et al., 1992). Cell viability was assessed by measuring lactate dehydrogenase activity in the conditioned medium after filtration as disclosed previously elsewhere herein (published as Mandinova et al., 2003, J. Cell Sci. 116:2687-2696), and total cell lysates were obtained and processed for immunoblot analysis as described (Landriscina et al., 2001, J. Biol. Chem. 276:22544-22552).
Stable FGF1R136K NIH 3T3 cell transfectants were pre-incubated with either 100 ng/ml pertussis toxin (PTX) or 10 ng/ml cholera toxin (CT) for 60 minutes at 37° C. in DMEM containing 10% BCS. After pre-incubation, the cells were washed, stimulated with 10 μg/ml of thrombin for different periods of time in the presence of either 100 ng/ml PTX or 10 ng/ml CT, conditioned medium collected, and subjected to immunoblot analysis as described above.
Since FGF1 is known to be susceptible to thrombin cleavage at residue 136 (Erzurum et al., 2003, J. Vasc. Surg. 37:1075-1081), a thrombin-resistant FGF1 mutant (FGF1R136K; described in International Patent Publication No. WO03/052378, which is incorporated by reference in its entirety herein) was used and stable FGF1R136K NIH 3T3 cell transfectants were produced.

[3] = biological target: T1, Delta1 (Homo sapiens, UniProt O00548); assay: Thrombin cleavage of in vitro translation product of Delta1; assay type: biochemical
T1 construct: made in house
T1 sequence (O00548 18-723): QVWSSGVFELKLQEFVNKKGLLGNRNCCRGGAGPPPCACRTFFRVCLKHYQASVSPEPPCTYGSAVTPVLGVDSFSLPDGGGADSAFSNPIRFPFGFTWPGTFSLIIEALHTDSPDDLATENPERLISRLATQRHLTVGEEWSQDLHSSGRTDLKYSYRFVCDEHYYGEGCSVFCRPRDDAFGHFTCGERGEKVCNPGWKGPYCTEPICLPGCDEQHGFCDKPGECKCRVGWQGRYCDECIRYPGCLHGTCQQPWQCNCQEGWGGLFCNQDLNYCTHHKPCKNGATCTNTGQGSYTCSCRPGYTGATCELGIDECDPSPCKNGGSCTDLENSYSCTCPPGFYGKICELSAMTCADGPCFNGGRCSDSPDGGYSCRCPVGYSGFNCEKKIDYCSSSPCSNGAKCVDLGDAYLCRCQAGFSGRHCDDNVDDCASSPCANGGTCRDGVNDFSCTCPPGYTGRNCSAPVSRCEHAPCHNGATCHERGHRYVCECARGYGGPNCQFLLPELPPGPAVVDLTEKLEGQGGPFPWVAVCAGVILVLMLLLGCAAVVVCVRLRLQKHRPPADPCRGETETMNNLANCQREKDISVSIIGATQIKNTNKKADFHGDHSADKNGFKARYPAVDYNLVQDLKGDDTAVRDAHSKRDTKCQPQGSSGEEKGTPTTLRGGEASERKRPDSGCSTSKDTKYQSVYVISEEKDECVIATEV

Thrombin
DNA synthesis frequency with dnFGFR1 expression [1]: level consistent with a quiescent cellular phenotype
export of FGF2 [2]: unable to induce
concentration giving maximal response of FGF1R136K release ([2]; 37° C.): 10 µg/mL
export of S100A13 ([2]; 37° C., cells co-expressing S100A13 and FGF1R136K): presence of S100A13 in the extracellular compartment
release of the FGF1R136K mutant into the extracellular compartment ([2]; 37° C., 10 μg/ml α-thrombin or 5 μM TRAP): rapid and sustained appearance
time to maximum levels of FGF-1 release after contact ([2]; FGF-1-NIH 3T3 transfectants): one
release of the FGF1R136K mutant from cells with elevated Notch1 signaling ([2]; cells adenovirally transduced with caN1): unable to initiate the release
export of p40 Syt1 ([2]; p40 Syt1 adenovirally transduced): presence of p40 Syt1 in the extracellular compartment
proteolytic modification of Delta1 translation product [3]: unable to proteolytically modify
